In patent publication US11787785B2 (NOVARTIS AG, priority 2021, dated 2023):

Biological target: T1, WIZ protein (HiBit-WIZ fusion protein) (Homo sapiens, UniProt O95785+Q96SW2)
T1 construct: expressed in transfected cells
Assay: Quantification of WIZ protein levels in HiBit tag fusion protein assay (WIZ HiBit assay in 293T cells)
Type: cell-based
Parameters: remaining activity / Dmax: dose or concentration left out as unconfirmed
Conditions: for Dmax at 25 µM / remaining activity at 25 µM / Dmax / remaining activity: HEK-293T; for Dmax at 25 µM: 100 − Amax; for Dmax at 25 µM / remaining activity at 25 µM: 293T cells; for Dmax at 25 µM / Dmax: read-out: % degradation of WIZ (100 − Amax); for remaining activity at 25 µM: DMSO-normalized, curve-fitted percentage of WIZ-HiBit remaining at 25 uM; for remaining activity at 25 µM / remaining activity: read-out: WIZ Amax; for DC50: WIZ HiBit assay in 293T cells, 10-point, 5-fold dose response, highest concentration 25 μM, about 18 hours, read-out: WIZ AC50
Outline: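 Luminescence after LgBit complementation quantified remaining HiBit-WIZ in lysates of single-copy stable 293T lines. Cells dosed ~18 h at 37 °C with 10-point, 5-fold dilutions (highest 25 μM); DMSO set to 100%, fitted curve gave % remaining at 25 μM (Amax).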

T1 sequence (O95785 whole entry, the tested form may be a part): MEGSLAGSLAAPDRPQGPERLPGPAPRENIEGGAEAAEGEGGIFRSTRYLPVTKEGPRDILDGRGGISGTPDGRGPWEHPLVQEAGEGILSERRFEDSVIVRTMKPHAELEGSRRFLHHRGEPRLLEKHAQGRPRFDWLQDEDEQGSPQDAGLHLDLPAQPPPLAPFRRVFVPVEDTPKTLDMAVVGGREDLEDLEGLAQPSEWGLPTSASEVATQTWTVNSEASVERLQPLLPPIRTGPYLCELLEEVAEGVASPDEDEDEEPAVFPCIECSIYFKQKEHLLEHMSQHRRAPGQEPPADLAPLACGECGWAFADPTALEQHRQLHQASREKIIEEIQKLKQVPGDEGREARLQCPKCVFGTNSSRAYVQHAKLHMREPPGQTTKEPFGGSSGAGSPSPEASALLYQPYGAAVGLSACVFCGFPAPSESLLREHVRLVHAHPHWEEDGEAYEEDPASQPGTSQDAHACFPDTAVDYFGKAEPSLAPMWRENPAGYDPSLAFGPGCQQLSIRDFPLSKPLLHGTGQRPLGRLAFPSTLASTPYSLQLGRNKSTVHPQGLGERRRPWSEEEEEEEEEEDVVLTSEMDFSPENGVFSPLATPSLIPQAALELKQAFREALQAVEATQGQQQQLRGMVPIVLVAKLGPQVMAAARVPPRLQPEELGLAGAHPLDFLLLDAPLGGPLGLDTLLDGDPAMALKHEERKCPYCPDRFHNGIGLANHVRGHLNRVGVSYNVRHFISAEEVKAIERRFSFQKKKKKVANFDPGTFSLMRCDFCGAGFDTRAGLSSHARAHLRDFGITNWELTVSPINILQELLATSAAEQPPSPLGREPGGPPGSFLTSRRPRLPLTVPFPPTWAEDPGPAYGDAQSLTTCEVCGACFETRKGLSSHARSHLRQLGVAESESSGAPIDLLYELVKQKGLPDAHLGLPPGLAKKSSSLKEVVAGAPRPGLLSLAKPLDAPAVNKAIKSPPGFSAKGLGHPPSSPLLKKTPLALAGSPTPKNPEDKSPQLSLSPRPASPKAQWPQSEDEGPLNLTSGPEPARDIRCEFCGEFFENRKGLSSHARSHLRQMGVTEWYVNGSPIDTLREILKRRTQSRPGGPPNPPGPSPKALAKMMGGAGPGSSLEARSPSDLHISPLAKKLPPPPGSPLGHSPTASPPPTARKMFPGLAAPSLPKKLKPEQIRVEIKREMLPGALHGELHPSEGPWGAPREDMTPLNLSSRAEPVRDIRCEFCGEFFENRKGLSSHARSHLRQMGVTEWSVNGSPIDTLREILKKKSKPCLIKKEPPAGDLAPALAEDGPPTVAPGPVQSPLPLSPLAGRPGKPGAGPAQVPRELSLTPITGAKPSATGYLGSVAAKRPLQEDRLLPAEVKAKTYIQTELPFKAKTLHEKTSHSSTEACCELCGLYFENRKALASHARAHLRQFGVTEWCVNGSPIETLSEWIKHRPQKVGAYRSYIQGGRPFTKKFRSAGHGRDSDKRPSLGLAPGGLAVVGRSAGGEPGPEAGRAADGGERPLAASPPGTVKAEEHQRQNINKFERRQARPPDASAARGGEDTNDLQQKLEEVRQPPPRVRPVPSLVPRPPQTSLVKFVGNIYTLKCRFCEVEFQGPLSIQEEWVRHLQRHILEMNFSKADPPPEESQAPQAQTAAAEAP
T1 sequence (Q96SW2 whole entry, the tested form may be a part): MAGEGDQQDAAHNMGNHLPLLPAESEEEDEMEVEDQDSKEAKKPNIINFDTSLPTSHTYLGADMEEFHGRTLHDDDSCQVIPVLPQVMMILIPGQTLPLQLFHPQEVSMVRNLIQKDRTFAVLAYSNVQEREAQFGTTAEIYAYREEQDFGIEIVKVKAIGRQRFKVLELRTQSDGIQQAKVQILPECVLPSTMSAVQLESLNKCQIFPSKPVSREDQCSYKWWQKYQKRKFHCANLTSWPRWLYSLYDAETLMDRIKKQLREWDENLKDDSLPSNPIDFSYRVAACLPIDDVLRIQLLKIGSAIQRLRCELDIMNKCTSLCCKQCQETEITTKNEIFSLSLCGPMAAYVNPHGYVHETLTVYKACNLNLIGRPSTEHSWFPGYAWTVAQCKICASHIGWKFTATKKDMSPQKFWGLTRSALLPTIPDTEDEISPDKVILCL
T1 sequence (Q16531 whole entry partner, the tested form may be a part): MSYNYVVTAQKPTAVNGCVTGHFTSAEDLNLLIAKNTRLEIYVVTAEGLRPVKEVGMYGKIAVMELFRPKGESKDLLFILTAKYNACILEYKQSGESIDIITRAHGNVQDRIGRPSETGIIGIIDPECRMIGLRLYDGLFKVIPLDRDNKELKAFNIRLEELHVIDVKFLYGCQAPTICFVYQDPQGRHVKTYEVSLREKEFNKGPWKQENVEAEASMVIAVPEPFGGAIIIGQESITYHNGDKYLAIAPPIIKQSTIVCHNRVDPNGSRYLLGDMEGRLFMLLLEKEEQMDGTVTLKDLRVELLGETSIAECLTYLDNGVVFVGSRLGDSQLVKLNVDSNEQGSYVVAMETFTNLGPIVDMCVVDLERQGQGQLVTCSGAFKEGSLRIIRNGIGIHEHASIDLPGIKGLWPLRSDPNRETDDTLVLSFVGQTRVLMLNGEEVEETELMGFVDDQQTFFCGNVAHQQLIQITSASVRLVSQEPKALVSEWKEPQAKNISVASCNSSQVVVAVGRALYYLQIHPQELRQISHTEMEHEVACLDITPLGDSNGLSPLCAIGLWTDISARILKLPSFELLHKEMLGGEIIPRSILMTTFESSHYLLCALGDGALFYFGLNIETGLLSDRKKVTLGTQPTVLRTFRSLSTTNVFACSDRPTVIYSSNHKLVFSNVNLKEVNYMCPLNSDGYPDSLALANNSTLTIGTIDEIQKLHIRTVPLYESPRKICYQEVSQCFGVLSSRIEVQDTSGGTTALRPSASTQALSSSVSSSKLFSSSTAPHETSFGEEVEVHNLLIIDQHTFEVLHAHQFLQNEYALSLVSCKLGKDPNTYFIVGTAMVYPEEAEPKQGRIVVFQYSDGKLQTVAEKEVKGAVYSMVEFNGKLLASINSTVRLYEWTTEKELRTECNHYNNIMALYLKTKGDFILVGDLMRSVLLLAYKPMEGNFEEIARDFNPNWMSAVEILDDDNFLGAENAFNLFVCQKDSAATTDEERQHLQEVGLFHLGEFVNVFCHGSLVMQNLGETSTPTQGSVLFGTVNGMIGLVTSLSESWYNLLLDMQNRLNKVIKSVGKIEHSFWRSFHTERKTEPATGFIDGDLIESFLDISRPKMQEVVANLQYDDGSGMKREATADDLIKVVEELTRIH

| Compound | Dmax at 25 µM [%] | remaining activity at 25 µM [%] | DC50 [µM] | Dmax [%] | remaining activity [%] |
| --- | --- | --- | --- | --- | --- |
| CC(C)CN1CCN(Cc2ccn3ncc(N4CCC(=O)NC4=O)c3c2)C(=O)C1 [Example 254, 1-(5-((4-isobutyl-2-oxopiperazin-1-yl)methyl)pyrazolo[1,5-a]pyridin-3-yl)dihydropyrimidine-2,4(1H,3H)-dione] | 0 | 100 | > 25 | – | – |
| Cn1cnc(CN2CCC(Cc3ccn4ncc(N5CCC(=O)NC5=O)c4c3)CC2)c1 [Example 116] | 39 | 61 | 1.7 | – | – |
| CC(C)CN1CCC(Cc2ccn3ncc(N4CCC(=O)NC4=O)c3c2)C1 (stereo not drawn) [Example 132] | 41 | 59 | 0.72 | – | – |
| CS(=O)(=O)N1CCC(Cc2ccn3ncc(N4CCC(=O)NC4=O)c3c2)CC1 [Example 90] | 77 | 23 | 2 | – | – |
| O=C1CCN(c2cnn3ccc(CC4CCN(C(=O)C5CCCCC5)CC4)cc23)C(=O)N1 [Example 99] | 52 | 48 | 1.83 | – | – |
| Cn1cnc(CN2CCN(Cc3ccn4ncc(N5CCC(=O)NC5=O)c4c3)CC2)c1 [Example 196, 1-(5-((4-((1-methyl-1H-imidazol-4-yl)methyl)piperazin-1-yl)methyl)pyrazolo[1,5-a]pyridin-3-yl)dihydropyrimidine-2,4(1H,3H)-dione] | 41 | 59 | 3.82 | – | – |
| O=C1CCN(c2cnn3ccc(CN4CCN(C(=O)C5(C(F)(F)F)CC5)CC4)cc23)C(=O)N1 [Example 184, 1-(5-((4-(1-(trifluoromethyl)cyclopropane-1-carbonyl)piperazin-1-yl)methyl)pyrazolo[1,5-a]pyridin-3-yl)dihydropyrimidine-2,4(1H,3H)-dione] | 29 | 71 | 1.63 | – | – |
| C[C@H]1CN(CC2CCOCC2)CCN1Cc1ccn2ncc(N3CCC(=O)NC3=O)c2c1 [Example 223] | 51 | 49 | 0.877 | – | – |
| C[C@H]1CN(CC2CC(F)(F)C2)CCN1Cc1ccn2ncc(N3CCC(=O)NC3=O)c2c1 [Example 226, (S)-1-(5-((4-((3,3-difluorocyclobutyl)methyl)-2-methylpiperazin-1-yl)methyl)pyrazolo[1,5-a]pyridin-3-yl)dihydropyrimidine-2,4(1H,3H)-dione] | 45 | 55 | 1.23 | – | – |
| CCC(CC)N1CCN(Cc2ccn3ncc(N4CCC(=O)NC4=O)c3c2)CC1 [Example 164] | 69 | 31 | 0.323 | – | – |
| CC(=O)N1CCC(Cc2ccn3ncc(N4CCC(=O)NC4=O)c3c2)CC1 [Example 104, 1-(5-((1-acetylpiperidin-4-yl)methyl)pyrazolo[1,5-a]pyridin-3-yl)dihydropyrimidine-2,4(1H,3H)-dione] | – | – | 7.36 | 62 | 38 |
| C[C@H]1C[C@H](Cc2ccn3ncc(N4CCC(=O)NC4=O)c3c2)CCN1C(=O)C1CCN(C)CC1 [Example 290] | 54 | 46 | 1.7 | – | – |
| O=C1CCN(c2cnn3ccc(CC4CCN(S(=O)(=O)CC5CCCCC5)CC4)cc23)C(=O)N1 [Example 80, 1-(5-((1-((cyclohexylmethyl)sulfonyl)piperidin-4-yl)methyl)pyrazolo[1,5-a]pyridin-3-yl)dihydropyrimidine-2,4(1H,3H)-dione] | – | – | 0.049 | 88 | 12 |
| O=C1CCN(c2cnn3ccc(CC4CN(CC5CCCCC5)C4)cc23)C(=O)N1 [Example 135, 1-(5-((1-(cyclohexylmethyl)azetidin-3-yl)methyl)pyrazolo[1,5-a]pyridin-3-yl)dihydropyrimidine-2,4(1H,3H)-dione] | 26 | 74 | 2.1 | – | – |
| O=C1CCN(c2cnn3ccc(CC4CCN(C(=O)OC5CCCCC5)CC4)cc23)C(=O)N1 [Example 96] | 42 | 58 | > 25 | – | – |
| CC(C)CN1[C@@H](C)CN(Cc2ccn3ncc(N4CCC(=O)NC4=O)c3c2)C[C@@H]1C [Example 259, 1-(5-(((3S,5S)-4-isobutyl-3,5-dimethylpiperazin-1-yl)methyl)pyrazolo[1,5-a]pyridin-3-yl)dihydropyrimidine-2,4(1H,3H)-dione] | 61 | 39 | 0.258 | – | – |
| CC(C)N1CCC(Cc2ccn3ncc(N4CCC(=O)NC4=O)c3c2)CC1 [Example 37, 1-(5-((1-isopropylpiperidin-4-yl)methyl)pyrazolo[1,5-a]pyridin-3-yl)dihydropyrimidine-2,4(1H,3H)-dione] | 72 | 28 | 0.446 | – | – |

Now from value to compound, other results behind:

| Dmax at 25 µM [%] | remaining activity at 25 µM [%] | DC50 [µM] | Compound | Dmax [%] | remaining activity [%] |
| --- | --- | --- | --- | --- | --- |
| 81 | 19 | 0.018 | C[C@H]1C[C@H](Cc2ccn3ncc(N4CCC(=O)NC4=O)c3c2)CCN1C(=O)N(C)C [Example 294] | – | – |
| 77 | 23 | 0.032 | C[C@H]1C[C@H](Cc2ccn3ncc(N4CCC(=O)NC4=O)c3c2)CCN1CC(F)F [Example 274, 1-(5-(((2S,4R)-1-(2,2-difluoroethyl)-2-methylpiperidin-4-yl)methyl)pyrazolo[1,5-a]pyridin-3-yl)dihydropyrimidine-2,4(1H,3H)-dione] | – | – |
| 82 | 18 | 0.109 | O=C1CCN(c2cnn3ccc(CC4CCN(CC5COC5)CC4)cc23)C(=O)N1 [Example 119, 1-(5-((1-(oxetan-3-ylmethyl)piperidin-4-yl)methyl)pyrazolo[1,5-a]pyridin-3-yl)dihydropyrimidine-2,4(1H,3H)-dione] | – | – |
| 85 | 15 | 0.007 | C[C@H]1C[C@@H](Cc2ccn3ncc(N4CCC(=O)NC4=O)c3c2)CCN1CC1CCCCC1 (single isomer, unassigned) [Example 71] | – | – |
| 53 | 47 | 0.15 | CC1(C)CN(Cc2ccn3ncc(N4CCC(=O)NC4=O)c3c2)CCN1CC1CCCCC1 [Example 231, 1-(5-((4-(cyclohexylmethyl)-3,3-dimethylpiperazin-1-yl)methyl)pyrazolo[1,5-a]pyridin-3-yl)dihydropyrimidine-2,4(1H,3H)-dione] | – | – |
| 77 | 23 | 0.071 | O=C1CCN(c2cnn3ccc(CC4CCN(Cc5cccc(F)c5)CC4)cc23)C(=O)N1 [Example 22, 1-(5-((1-(3-fluorobenzyl)piperidin-4-yl)methyl)pyrazolo[1,5-a]pyridin-3-yl)dihydropyrimidine-2,4(1H,3H)-dione] | – | – |
| 70 | 30 | 0.034 | O=C1CCN(c2cnn3ccc(CC4CCN(CC(F)F)CC4)cc23)C(=O)N1 [Example 43, 1-(5-((1-(2,2-difluoroethyl)piperidin-4-yl)methyl)pyrazolo[1,5-a]pyridin-3-yl)dihydropyrimidine-2,4(1H,3H)-dione] | – | – |
| 54 | 46 | 0.086 | Cc1cccc(CN2CCN(Cc3ccn4ncc(N5CCC(=O)NC5=O)c4c3)CC2)c1 [Example 190, 1-(5-((4-(3-methylbenzyl)piperazin-1-yl)methyl)pyrazolo[1,5-a]pyridin-3-yl)dihydropyrimidine-2,4(1H,3H)-dione] | – | – |
| 53 | 47 | 0.228 | O=C1CCN(c2cnn3ccc(CN4CCN(Cc5cccc(F)c5)CC4)cc23)C(=O)N1 [Example 170] | – | – |
| 78 | 21 | 0.004 | C[C@H]1CN(Cc2ccn3ncc(N4CCC(=O)NC4=O)c3c2)CCN1C[C@@H]1CCC(F)(F)C1 [Example 319, 1-(5-(((S)-4-(((R)-3,3-difluorocyclopentyl)methyl)-3-methylpiperazin-1-yl)methyl)pyrazolo[1,5-a]pyridin-3-yl)dihydropyrimidine-2,4(1H,3H)-dione] | – | – |
| 89 | 11 | 0.204 | O=C1CCN(c2cnn3ccc(CC4CCN(CC5CC5)CC4)cc23)C(=O)N1 [Example 5, 1-(5-((1-(cyclopropylmethyl)piperidin-4-yl)methyl)pyrazolo[1,5-a]pyridin-3-yl)dihydropyrimidine-2,4(1H,3H)-dione] | – | – |
| 65 | 35 | 0.089 | CC(C)CN1CCN(Cc2ccn3ncc(N4CCC(=O)NC4=O)c3c2)C[C@H]1C [Example 216] | – | – |
| 80 | 20 | 0.115 | O=C1CCN(c2cnn3ccc(CN4CCN(CCC5CCOCC5)CC4)cc23)C(=O)N1 [Example 161] | – | – |
| 90 | 10 | 0.005 | C[C@H]1C[C@H](Cc2ccn3ncc(N4CCC(=O)NC4=O)c3c2)CCN1CC1CCCCCC1 [Example 147] | – | – |
| 86 | 14 | 0.002 | O=C1CCN(c2cnn3ccc(CC4CCN(C[C@H]5C[C@@H](F)[C@@H](F)C5)CC4)cc23)C(=O)N1 [Example 301, 1-(5-((1-(((1r,3R,4S)-3,4-difluorocyclopentyl)methyl)piperidin-4-yl)methyl)pyrazolo[1,5-a]pyridin-3-yl)dihydropyrimidine-2,4(1H,3H)-dione] | – | – |
